Test results: ChEMBL document CHEMBL1201862, “PubChem BioAssay data set” (2004)
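Five concentrations, 48 hours, 96-well plates. At the GI50, growth is halved.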 The source made the active and inactive calls. Cut-off read from the data, not from the text of the source: active = GI50 up to about 1.1 µM and inactive = higher.

Key:
Experiment in all cases: NCI-60 cell line screen, 48 h
ACHN = system: ACHN
CCRF-CEM = system: CCRF-CEM
HCC 2998 = system: HCC 2998
HCT-116 = system: HCT-116
HCT-15 = system: HCT-15
HOP-92 = system: HOP-92
LOX IMVI = system: LOX IMVI
MDA-N = system: MDA-N
NCI-H226 = system: NCI-H226
NCI/ADR-RES = system: NCI/ADR-RES
RPMI-8226 = system: RPMI-8226
SF-268 = system: SF-268
SF-295 = system: SF-295
SK-MEL-2 = system: SK-MEL-2
SW-620 = system: SW-620
T47D = system: T47D
UACC-257 = system: UACC-257
UACC-62 = system: UACC-62
A549 = system: A549

Row | SMILES | GI50 (ACHN) | GI50 (CCRF-CEM) | GI50 (HCC 2998) | GI50 (HCT-116) | GI50 (HCT-15) [µM] | GI50 (HOP-92) | GI50 (LOX IMVI) | GI50 (MDA-N) | GI50 (NCI-H226) | GI50 (NCI/ADR-RES) | GI50 (RPMI-8226) | GI50 (SF-268) | GI50 (SF-295) | GI50 (SK-MEL-2) | GI50 (SW-620) | GI50 (T47D) | GI50 (UACC-257) | GI50 (UACC-62) | GI50 (A549)
1 | C[C@@]12C[C@@H](c3ccccc3O1)N1CCCSC1=N2 | > 100 µM (inactive) | > 100 µM (inactive) | > 100 µM (inactive) | > 100 µM (inactive) | > 100 | > 100 µM (inactive) | > 100 µM (inactive) | > 100 µM (inactive) | > 100 µM (inactive) | > 100 µM (inactive) | > 100 µM (inactive) | > 100 µM (inactive) | > 100 µM (inactive) | > 100 µM (inactive) | > 100 µM (inactive) | > 100 µM (inactive) | > 100 µM (inactive) | > 100 µM (inactive) | –
2 | COC(=O)CCc1ccc2c(c1)CC1(C2)Cc2ccc(CCC(=O)OC)cc2C1 | > 100 µM (inactive) | 15.6 µM (inactive) | > 100 µM (inactive) | > 100 µM (inactive) | > 100 | 35.4 µM (inactive) | 26.6 µM (inactive) | > 100 µM (inactive) | 38.8 µM (inactive) | > 100 µM (inactive) | 28.4 µM (inactive) | – | 78 µM (inactive) | > 100 µM (inactive) | – | 58.2 µM (inactive) | > 100 µM (inactive) | > 100 µM (inactive) | > 100 µM (inactive)
3 | COc1cc(/C=C2\CC3C4CC=C5C[C@@H](O)CC[C@]5(C)C4CC[C@]3(C)\C2=N\O)cc(OC)c1OC (some centres not stated) | 3.2 µM (inactive) | 6.44 µM (inactive) | 6.34 µM (inactive) | 4.05 µM (inactive) | 3.88 | 14.3 µM (inactive) | 5.48 µM (inactive) | 6.37 µM (inactive) | 7.96 µM (inactive) | 7.6 µM (inactive) | 10.4 µM (inactive) | 8.02 µM (inactive) | 3.02 µM (inactive) | 4.07 µM (inactive) | 16.7 µM (inactive) | 2.72 µM (inactive) | 9.91 µM (inactive) | 9.06 µM (inactive) | 4.65 µM (inactive)
4 | N#CC12CC=C(c3ccccc3)N=C1NC(c1ccccc1)=CC2 (configuration not stated) | 57.4 µM (inactive) | 32.2 µM (inactive) | > 100 µM (inactive) | 47 µM (inactive) | 69.7 | 16 µM (inactive) | 30.8 µM (inactive) | 37.3 µM (inactive) | 60.8 µM (inactive) | 53.5 µM (inactive) | 28.8 µM (inactive) | > 100 µM (inactive) | 57.7 µM (inactive) | 56.4 µM (inactive) | 98.9 µM (inactive) | 34.7 µM (inactive) | 48.6 µM (inactive) | 86.7 µM (inactive) | 54 µM (inactive)
5 | Cc1ccc2c(c1)C(=O)C(C1OC(=O)c3ccccc31)C2 (configuration not stated) | 83.8 µM (inactive) | 89.7 µM (inactive) | > 100 µM (inactive) | 70.3 µM (inactive) | 42.8 | > 100 µM (inactive) | 39.9 µM (inactive) | > 100 µM (inactive) | 30.5 µM (inactive) | 33.7 µM (inactive) | 45.8 µM (inactive) | > 100 µM (inactive) | > 100 µM (inactive) | > 100 µM (inactive) | > 100 µM (inactive) | 76.9 µM (inactive) | > 100 µM (inactive) | 96.2 µM (inactive) | > 100 µM (inactive)
6 | O=C(CCCl)NN=C1NCCCCN1 | > 100 µM (inactive) | > 100 µM (inactive) | > 100 µM (inactive) | > 100 µM (inactive) | > 100 | > 100 µM (inactive) | > 100 µM (inactive) | > 100 µM (inactive) | > 100 µM (inactive) | > 100 µM (inactive) | > 100 µM (inactive) | > 100 µM (inactive) | > 100 µM (inactive) | > 100 µM (inactive) | > 100 µM (inactive) | > 100 µM (inactive) | > 100 µM (inactive) | > 100 µM (inactive) | > 100 µM (inactive)
7 | COc1ccc(/C=C2\c3cc(OC)c(OC)cc3CCN2C(=O)c2ccccc2)cc1OC | 53.5 µM (inactive) | 32.3 µM (inactive) | 44.6 µM (inactive) | 35.5 µM (inactive) | 42.4 | > 100 µM (inactive) | 41.6 µM (inactive) | 25 µM (inactive) | 37.9 µM (inactive) | 23.7 µM (inactive) | 29.4 µM (inactive) | 46.3 µM (inactive) | 61.4 µM (inactive) | 43.3 µM (inactive) | 34.5 µM (inactive) | 33.3 µM (inactive) | 86.9 µM (inactive) | 36.7 µM (inactive) | 37.8 µM (inactive)
8 | COc1cc(C(=O)NC(CCN)(c2ccccc2)c2ccccc2)cc(OC)c1OC | 24.8 µM (inactive) | > 10 µM (inactive) | 13.4 µM (inactive) | > 42.4 µM (inactive) | > 31.6 | 15.3 µM (inactive) | 16.7 µM (inactive) | 19.2 µM (inactive) | 30.8 µM (inactive) | 42.7 µM (inactive) | > 10 µM (inactive) | 29.1 µM (inactive) | 21.6 µM (inactive) | 63.2 µM (inactive) | 29.6 µM (inactive) | 23.4 µM (inactive) | 16.8 µM (inactive) | > 31.6 µM (inactive) | 21.3 µM (inactive)
9 | Brc1ccc2[nH]cc(-c3csc(-c4c[nH]c5ccccc45)n3)c2c1 | 5.5 µM (inactive) | 2.11 µM (inactive) | 2.08 µM (inactive) | 2.47 µM (inactive) | 2.33 | 3 µM (inactive) | 2.1 µM (inactive) | 2.88 µM (inactive) | 1.82 µM (inactive) | 2.75 µM (inactive) | 3.08 µM (inactive) | 2.66 µM (inactive) | 2.42 µM (inactive) | 3.17 µM (inactive) | 2.75 µM (inactive) | 4.24 µM (inactive) | 5.07 µM (inactive) | 5.5 µM (inactive) | 3.67 µM (inactive)
10 | CC1(C)O[C@@H]2[C@@H]3OC(=O)C[C@@H]3[C@@H](COCc3ccccc3)[C@@H]2O1 | > 100 µM (inactive) | > 100 µM (inactive) | > 100 µM (inactive) | > 100 µM (inactive) | > 100 | > 100 µM (inactive) | > 100 µM (inactive) | > 100 µM (inactive) | > 100 µM (inactive) | > 100 µM (inactive) | > 100 µM (inactive) | > 100 µM (inactive) | > 100 µM (inactive) | > 100 µM (inactive) | > 100 µM (inactive) | > 100 µM (inactive) | > 100 µM (inactive) | > 100 µM (inactive) | > 100 µM (inactive)
11 | COC(=O)c1ccccc1/C=C1\Cc2c(ccc3c2CCC3)C1=O | > 100 µM (inactive) | > 100 µM (inactive) | > 100 µM (inactive) | > 100 µM (inactive) | > 100 | 85.9 µM (inactive) | > 100 µM (inactive) | > 100 µM (inactive) | > 100 µM (inactive) | > 100 µM (inactive) | > 100 µM (inactive) | > 100 µM (inactive) | > 100 µM (inactive) | 56 µM (inactive) | > 100 µM (inactive) | > 100 µM (inactive) | > 100 µM (inactive) | > 100 µM (inactive) | > 100 µM (inactive)
12 | CCc1n[nH]c(=O)n1N1C(=O)C2CC=CCC2C1=O (configuration not stated) | > 100 µM (inactive) | > 100 µM (inactive) | > 100 µM (inactive) | > 100 µM (inactive) | > 100 | > 100 µM (inactive) | > 100 µM (inactive) | > 100 µM (inactive) | > 100 µM (inactive) | > 100 µM (inactive) | > 100 µM (inactive) | > 100 µM (inactive) | > 100 µM (inactive) | > 100 µM (inactive) | > 100 µM (inactive) | > 100 µM (inactive) | > 100 µM (inactive) | > 100 µM (inactive) | > 100 µM (inactive)
13 | COc1cccc2cc(C(=O)Nc3ccccn3)c(=N)oc12 | 60.3 µM (inactive) | 22.8 µM (inactive) | > 100 µM (inactive) | 83.2 µM (inactive) | > 100 | > 100 µM (inactive) | > 100 µM (inactive) | 82.2 µM (inactive) | > 100 µM (inactive) | > 100 µM (inactive) | 75.7 µM (inactive) | 64.1 µM (inactive) | > 100 µM (inactive) | 33.6 µM (inactive) | > 100 µM (inactive) | 33 µM (inactive) | > 100 µM (inactive) | 64.4 µM (inactive) | > 100 µM (inactive)
14 | Cc1ccc(/N=N\c2c(O)ccc3cc(S(=O)(=O)O)ccc23)cc1 | > 100 µM (inactive) | > 100 µM (inactive) | > 100 µM (inactive) | > 100 µM (inactive) | > 100 | > 100 µM (inactive) | > 100 µM (inactive) | > 100 µM (inactive) | > 100 µM (inactive) | > 100 µM (inactive) | > 100 µM (inactive) | > 100 µM (inactive) | > 100 µM (inactive) | > 100 µM (inactive) | > 100 µM (inactive) | > 100 µM (inactive) | > 100 µM (inactive) | > 100 µM (inactive) | > 100 µM (inactive)
15 | CN(C)/C=C/c1c2c(nc3ccccc13)C(=O)c1ccccc1C2=O | 0.598 µM (active) | 0.78 µM (active) | 1.93 µM (inactive) | 0.923 µM (active) | 0.766 | 1.95 µM (inactive) | 0.067 µM (active) | 0.483 µM (active) | 1.15 µM (inactive) | 1.71 µM (inactive) | 0.0989 µM (active) | 1.77 µM (inactive) | 0.875 µM (active) | 1.12 µM (active) | 1.62 µM (inactive) | 1.41 µM (inactive) | 0.498 µM (active) | 0.25 µM (active) | 2.33 µM (inactive)
